Consider 34 compounds from ChEMBL document CHEMBL1157539, “Thousands of chemical starting points for antimalarial lead identification” (Nature, 2010).

The assay concerns Plasmodium falciparum. The assay can be described thus: GSK_TCMDC: Inhibition of Plasmodium falciparum 3D7 in whole erythrocytes, using parasite LDH activity as an index of growth. It is filed as functional, organism-based. Particulars: Plasmodium falciparum, 3D7.
In turn, `CN(C)CCOc1ccc2c(=O)cc(CCc3cccc(F)c3F)n(CC(=O)N(C)Cc3ccc(-c4ccc(C(F)(F)F)cc4)cc3)c2c1` had an XC50 of 1200 nM. The value for `CCCCCCCCc1c(C)[nH]c(C)c(Cl)c1=O` was 229 nM; that for `Cc1cccc2nc(-c3cccc(-c4cccc(CNCc5cccc(N)c5)c4)c3)[nH]c12` was 543 nM; that for `CCCOc1cc(O)c(-c2[nH]nc(C)c2Oc2ccccc2)cc1CC` was 1070 nM. The value for `CN(C)c1ccc(-c2ccc(C(=O)NC3CCN(Cc4ccc(F)cc4)CC3)s2)cc1` was 1050 nM; that for `Cc1cc(N2CCCC2)nc(Nc2ccc(NC(=O)c3ccc4c(c3)OCO4)cc2)n1` was 815 nM; that for `COc1ccc2nccc([C@@H](O)CN3CCC(NCc4cc5oc(=O)[nH]c5cc4F)CC3)c2c1` was 774 nM. The value for `O=C(Nc1ccnc(N2CC3CC2CN3Cc2cccc(O)c2)c1)c1ccc(F)cc1` (centres undefined) was 1240 nM; that for `c1ccc(-n2cncn2)cc1` was 591 nM. For `Cc1nc2nc(N)nc(N)c2c(C)c1Cc1ccc(C(N)=O)cc1`, the XC50 is 530 nM.

On to `CCOc1cccc(C2c3c(oc4ccccc4c3=O)C(=O)N2CCN(CC)CC)c1` (centres undefined), for which the XC50 was determined as 746 nM. The value for `CCn1c(-c2nonc2N)nc2c(-c3cccc(NC(=O)Nc4cccc(C#N)c4)c3)ncc(OCCCN)c21` was 669 nM. The value for `Cc1cccc2nc(-c3cccc(-c4cccc(NC(=O)c5cnn6cccnc56)c4)c3)[nH]c12` was 671 nM; that for `CN(C)CCOc1ccc(-c2cc(-c3ccnc(N)n3)c(-c3ccc(Cl)c(O)c3)o2)cc1` was 978 nM. The compound `CC[C@H]1CN2CC[C@H]1C[C@@H]2[C@@H](O)c1ccnc2ccc(OC)cc12` had an XC50 of 119 nM. Consider `COc1ccc(CN(C)CCCSc2ccc(NC(=O)c3cccc4c(=O)cc(-c5ccccc5)[nH]c34)cc2)cc1OC`, for which the XC50 came to 920 nM. As to `COc1ccc(-c2ccc3c(-c4cccc(S(C)(=O)=O)c4)cnc(N)c3c2)cc1`, the XC50 came to 1330 nM. Turning to `CC(C)c1nc(N2CCN(C(=S)NCc3ccccc3)CC2)c(C#N)c2c1COC(C)(C)C2`, the XC50 was 142 nM.

In turn, `CCCc1cc(Cc2cnc(N)nc2N)ccc1OCCCCCC(=O)O` showed an XC50 of 577 nM. Under `CN1CCN(Cc2ccc(-c3ccc4c(Nc5ccc(Cl)cc5F)ccnc4c3)o2)CC1` stands 155 nM. The value for `CN(C)C(=S)N/N=C1/C(=O)Nc2ccccc21` was 1050 nM; that for `CCOc1ccccc1N1CCN(CCCNC(=O)/C(=C/C=C/c2cc3cc(Cl)c(Cl)cc3[nH]2)OC)CC1` was 851 nM.

In turn, `CN(C)CCOc1ccc(-n2c(-c3nonc3N)nc3cncc(-c4ccc(F)cc4)c32)cc1` came in with an XC50 of 866 nM.

Turning to `C[C@@H](CC1CCCCC1)OC(=O)N(C)[C@@H]1CCN(C#N)C1`, the XC50 came to 621 nM.

`NC1CCCN(Cc2ccc(-c3cccc(-c4nc5cc(F)ccc5[nH]4)c3)cc2)C1` (centres undefined) gave an XC50 of 640 nM. `O=C(NC1CCCCC1)N(Cc1ccc(-c2ccc(CNCc3ccc4c(c3)OCO4)cc2)cc1)C1CCN(Cc2ccccc2)CC1` came in with an XC50 of 690 nM. Under `CCCCOc1ccc(CNCCCCCCNCc2ccc(OCCCC)c3ccccc23)c2ccccc12` stands 1130 nM; under `Cc1ccc(C(=O)Nc2cccc([N+](=O)[O-])c2)cc1S(=O)(=O)N1CC(C)CC(C)C1` (centres undefined), 794 nM. Take `COc1cc(OC)cc(-c2nn(-c3ccc([N+](=O)[O-])cc3Cl)c(=S)n2CC2CCCO2)c1` (centres undefined): the XC50 came out at 961 nM. Under `COc1ccc(-c2cccc(NC(=O)c3ccc(Cl)cc3)c2)cc1CN1CCCC1` stands 778 nM. The value for `N=C1NC(=N)N(OCCCCCCON2C(=N)NC(=N)NC2C=Cc2ccccc2)C(C=Cc2ccccc2)N1` (centres undefined) was 615 nM; that for `CC(C)Cc1cn(-c2nc(-c3nc4ccccc4[nH]3)cs2)c2cc(Cl)ccc12` was 483 nM; that for `O=C(Nc1cccc([N+](=O)[O-])c1)N(Cc1ccc(Cl)c(Cl)c1)C1CCNCC1` was 719 nM. Regarding `NC(=O)c1ccc(NCC(=O)Nc2cccc(-c3cccc(-c4nc5cc(F)ccc5[nH]4)c3)c2)cc1`, the XC50 was found to be 867 nM.
